The record followed here is patent US20070212700A1, “Methods of using and analyzing biological sequence data” (THE BOARD OF REGENTS OF THE UNIVERSITY OF TEXAS SYSTEM, priority 2005, published 2007).

Test [1] has as its system biotinylated oriented peptide libraries (group I PPxY, group II PPLP, group III PPR, group IV pS/pT-P). Nature of the test: Oriented peptide library binding assay (ELISA) for WW domain specificity. An excerpt: FIGS. 25A-D: Assays for binding affinity and specificity in WW domains. FIG. 25A: five N-terminal biotinylated oriented peptide libraries were constructed to present either a proline-only control (biotin-Z-GMAxxxxPxxxxAKKK (SEQ ID NO:162)) or the four different characteristic WW domain binding motifs: group I-oriented (biotin-Z-GMAxxxPPxYxxxAKKK-C (SEQ ID NO:163)), group II-oriented (biotin-Z-GMAxxxPPLPxxxAKKK (SEQ ID NO:164)), group III-oriented (biotin-Z-GMAxxxPPRxxxAKKK (SEQ ID NO:165)), and group IV-oriented (biotin-Z-GMAxxxxpSPxxxxAKKK (SEQ ID NO:166)), where Z is 6-aminohexanoic acid, pS is phosphoserine, and x denotes all amino acids except Cys. Binding to these peptides indicte affinity for the consensus motifes listed in FIG. 25A (SEQ ID NO:167-171). […] FIG. 25C: binding specificity of artificial WW domains from the CC55 set. Binding is reported in fold above background binding in the absence of target peptides. Shown are the mean and standard deviation of at least four independent assays. FIG. 25D: the binding specificity of additional artificial and natural WW domains.
An oriented peptide library binding assay was developed for measuring WW domain specificity, and a set of natural and artificial sequences was studied. Four biotinylated degenerate peptide libraries were constructed, each oriented around one group-specific WW recognition motif, and binding was detected using an ELISA assay (see FIGS. 25A and 25B). For example, the group I oriented peptide library was biotin-Z-GMAxxxPPxYxxxAKKK (SEQ ID NO:163), where Z is 6-aminohexanoic acid and x stands for any amino acid except cysteine (theoretical degeneracy of 8.9×10^8 sequences). A fifth proline-oriented library was also made as a control for non-specific binding. Natural WW domains that folded in the work described above were subjected to this assay. […] Similarly, the assay confirms known group III (FE65) and IV (Pin1) domains.

Another test has as its system PPxY-containing peptide. Nature of the test: Peptide binding to wild-type and mutant Nedd4.3 WW domains by isothermal titration calorimetry (double mutant cycle). To be noted: Nedd4.3 WW domain. The text has this: FIGS. 6A-C: A spatially distributed network underlying WW specificity. FIG. 6A: two views of the Nedd4.3 WW domain (in blue CPK), with residues comprising the cluster of eight co-evolving residues as red CPK with a transparent van der Waals surface. The cluster forms a physically connected network that links binding site residues at positions 21, 23, and 28 with the opposite side residues at positions 3 and 4 through a few intervening residues at positions 6, 8, and 22. FIG. 6B: the thermodynamic mutant cycle formalism for measuring energetic coupling between a pair of mutations. The method involves measuring equilibrium dissociation constants for peptide binding for four proteins: wild-type (WT), a mutation at one site (M1), a mutation at a second site (M2), and the double mutation M1, M2. The fold effect of M1 is calculated for the wild type background (X1) or for the background of the second mutation (X2). The thermodynamic coupling parameter Ω is defined as the ratio of these two fold effects (X1/X2)— the degree to which the effect of one mutation depends on the second. FIG. 6C: double mutant cycle analysis of co-evolving positions in the N39 (Nedd4.3) WW domain. […] Peptide binding to wild-type and mutant WW domains was measured using isothermal titration calorimetery. […]

“FE65: natural WW domain, known group III (SDLPAGWMRVQDTSGTYYWHIPTGTTQWEPPGR)”: in test [1], the “binding specificity / binding class” value was “group III”.

Regarding “L3A: alanine mutant at position 3 of the Nedd4.3 WW domain (GPAPPGWEERTHTDGRVFFINHNIKKTQWEDPRM)”, in the test on PPxY-containing peptide (PPxY-containing peptide, ITC), the “fold effect of single mutation on peptide binding relative to wild-type” value is listed as 5.15+/−0.99 fold. Further, the “effect of mutation in the background of T28A” value in the test with PPxY-containing peptide (mutant cycle) is “diminished”.

Regarding “Nedd4.3: natural group I WW domain, Nedd4.3 (N39) (GPLPPGWEERTHTDGRVFFINHNIKKTQWEDPRM)”, the “binding specificity / binding class” value in test [1] is listed as “specific interaction with the PPxY-containing sequences”.

In the case of “CC55-15: artificial WW domain from the CC55 set (SEQ ID NO:35) (AGLPQGWEAAFDNSGAVYYVNPNTGKTQWERPCLEN)”, the “binding specificity / binding class” value in test [1] was “group III binding profile”.
